Assay [1] has as its system mutant NAs (B/Perth E197 and B/Yamagata N197). Type of assay: biochemical, influenza B virus.
For assay [2], the target named is E197 Perth NA (B/Perth/211/2001 D197E mutant neuraminidase) (Influenza B virus, UniProt Q3S340, D197E). Format: biochemical, influenza B virus B/Perth/211/2001. The settings on record: read-out: Km for MUNANA.
The target in assay [3] is N197 Yamagata NA (B/Yamagata/186/05 D197N mutant neuraminidase) (Influenza B virus, UniProt Q38G88, D197N). Type of assay: biochemical, influenza B virus B/Yamagata/186/05. The settings on record: read-out: Km for MUNANA.

We go through three molecules from paper PMC2932999 (Journal of Medicinal Chemistry, 2010).

Consider `CCC(CC)[C@H](NC(C)=O)[C@@H]1[C@H](O)[C@@H](C(=O)O)C[C@H]1NC(=N)N` [compound 3, peramivir], for which, in assay [1], the “slow binding of inhibitor” value is “loss of slow binding”.

Broadly, the Km is the concentration of substrate that gives half-maximal velocity. Consider `CC(=O)N[C@H]1[C@H]([C@H](O)[C@H](O)CO)OC(Oc2ccc3c(C)cc(=O)oc3c2)(C(=O)O)C[C@@H]1O` (stereo partly shown) [MUNANA, 4-methylumbelliferyl-N-acetylneuraminic acid], for which the Km in assay [2] came to 12.1 ± 3.7 µM; in assay [3], 18.8 ± 4.5 µM.

As for `O=C(O)C1(F)O[C@H]([C@H](O)[C@H](O)CO)[C@H](O)[C@@H](O)C1F` (stereo partly drawn) [compound 4, 2,3-difluoro-2-keto-3-deoxy-D-glycero-D-galactononulosonic acid], the “resistance of mutant NAs compared to D197 wild type NA” value in assay [1] is given as “no resistance”.
